According to US20250270222A1, “AP2 ASSOCIATED KINASE 1 INHIBITORS AND USES THEREOF” (Satellos Bioscience Inc., priority 2023, published 2025):

Experiments:
[1] = target: GAK (amino acids Q25-N335) (Homo sapiens (Human), UniProt O14976); assay: GAK pSENs assay; type: biochemical
Procedure: (§1) The recombinant proteins were independently expressed in Esherichia coli BL21(DE3) cells cultured in Luria-Bertani (LB) medium until OD600 reached 0.6-0.8, then cooled to 15° C., and supplemented with 0.5 mM isopropyl 1-thio-D-galactopyranoside (IPTG) induce protein expression 16 h. Cells were harvested and resuspended in lysis buffer (50 mM HEPES pH 7.5, 500 mM NaCl, 5 mM imidazole, 5% glycerol, 0.5 mM Tris (2-carboxyethyl) phosphine (TCEP), cOmplete Protease Inhibitor Tablet (Roche)) and lysed by microfluidics high pressure homogenizer (UH-06, Union-Biotech). Proteins were purified using Ni-Affinity chromatography (His FF column, Bestchrom) and eluted stepwise in binding buffer with 20-300 mM imidazole. Removal of the hexahistidine tag was performed at 4° C. overnight using recombinant TEV protease and reacted with BirA to obtain the corresponding biotinylated-AAK1. BIKE or GAK proteins. Further separated in the reverse Strep column (Strep-Tactin® XT, IBA). The Biotin elution sample was collected containing untagged biotinylated protein was then purified by Ion-exchange chromatography (Mono Q 10/100 GL, Cytiva) and Size-exclusion chromatography (HiLoad 16/600 Superdex 200 pg, Cytiva). The pure protein was stored in a storage buffer 50 mM HEPES (pH 7.5), 300 mM NaCl, 5% glycerol at −80° C. Protein were characterized by SDS-PAGE. LC-MS and aSEC.
This example describes one illustrative method for determining the IC50 of the compounds of the present invention against GAK (amino acids Q25-N335).

[2] = target: AAK1 (amino acids T27-A365) (Homo sapiens (Human), UniProt Q2M2I8); assay: AAK1 pSENs assay; type: biochemical; conditions: ratio of AAK1 pSENs activity to GAK pSENs activity
Chain of AAK1 (amino acids T27-A365) (Q2M2I8 27-365): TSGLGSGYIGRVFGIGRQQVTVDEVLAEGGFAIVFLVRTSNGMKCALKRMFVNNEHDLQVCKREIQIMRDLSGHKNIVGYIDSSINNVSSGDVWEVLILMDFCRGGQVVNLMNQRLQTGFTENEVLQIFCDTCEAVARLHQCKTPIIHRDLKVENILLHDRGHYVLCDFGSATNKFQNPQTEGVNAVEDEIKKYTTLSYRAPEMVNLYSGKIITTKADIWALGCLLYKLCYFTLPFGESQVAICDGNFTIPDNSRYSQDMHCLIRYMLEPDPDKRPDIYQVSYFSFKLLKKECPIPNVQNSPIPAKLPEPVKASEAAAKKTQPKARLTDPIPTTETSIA
Procedure: as §1
This example describes one illustrative method for determining the IC50 of the compounds of the present invention against AAK1 (amino acids T27-A365). AAK1 protein was dissolved at 20 nM in 1× enzyme solution (50 mM HEPES pH7.5, 10 mM MgCl2, 1 mM DTT, 1% glycerol, 0.5 mM EGTA, 0.01% Briji35, 0.02% BSA) and 12.5 ul was incubated with 250 nl DMSO or 250 nl compound in DMSO at 25° C. for 15 min. The reaction was started by addition of 12.5 ul of 30 uM AQT0759 (Assayquant, CSKS-AQT0759B) and 70 uM ATP which were diluted in 1× substrate dilution buffer (50 mM HEPES pH7.5, 10 mM MgCl2, 1 mM DTT, 1% glycerol, 0.5 mM EGTA, 0.01% Briji35).

Chain of GAK (amino acids Q25-N335) (O14976 25-335): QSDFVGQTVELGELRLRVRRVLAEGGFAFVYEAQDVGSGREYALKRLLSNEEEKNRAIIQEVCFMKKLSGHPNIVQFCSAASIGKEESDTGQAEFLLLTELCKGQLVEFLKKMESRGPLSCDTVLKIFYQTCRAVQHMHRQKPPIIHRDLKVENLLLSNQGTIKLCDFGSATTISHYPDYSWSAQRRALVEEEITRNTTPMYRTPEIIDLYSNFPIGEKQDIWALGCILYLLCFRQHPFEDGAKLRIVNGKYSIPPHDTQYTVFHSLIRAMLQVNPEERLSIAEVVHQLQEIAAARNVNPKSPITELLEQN

Row | Structure (SMILES) | IC50 [1] [nM] | AAK1:GAK pSENs Selectivity [2]
1 | [2H]C([2H])([2H])N1C[C@@H](OC(=O)N2CCN(c3nc4c(-c5cccnc5OC5CC5)cnn4cc3F)CC2)CC1=O [Compound I-116, [(3S)-5-oxo-1-(trideuteriomethyl)pyrrolidin-3-yl]4-[3-[2-(cyclopropoxy)-3-pyridyl]-6-fluoro-pyrazolo[1,5-a]pyrimidin-5-yl]piperazine-1-carboxylate] | > 1500 | A (A: ≤0.015)
2 | O=C(O[C@H]1CC(=O)N(C2CCNCC2)C1)N1CCN(c2ccn3ncc(-c4cccnc4OC4CC4)c3n2)CC1 [Compound I-32, [(3S)-5-Oxo-1-(4-piperidyl)pyrrolidin-3-yl]4-[3-[2-(cyclopropoxy)-3-pyridyl]pyrazolo[1,5-a]pyrimidin-5-yl]piperazine-1-carboxylate] | > 1500 | A (A: ≤0.015)
3 | C[C@@H]1CN(c2ccn3ncc(-c4cccnc4OC4CC4)c3n2)CCN1C(=O)O[C@@H]1CNC(=O)C1 [Compound I-39, [(3S)-5-oxopyrrolidin-3-yl]-(2R)-4-[3-[2-(cyclopropoxy)-3-pyridyl]pyrazolo[1,5-a]pyrimidin-5-yl]-2-methyl-piperazine-1-carboxylate] | > 1500 | A (A: ≤0.015)
4 | COc1ccccc1-c1cnn2ccc(N3CCN(C(=O)O[C@H]4CO[C@H]5OCC[C@H]54)CC3)nc12 [Compound I-69, (3R,3aS,6aR)-hexahydrofuro[2,3-b]furan-3-yl 4-(3-(2-methoxyphenyl)pyrazolo[1,5-a]pyrimidin-5-yl)piperazine-1-carboxylate] | > 1500 | A (A: ≤0.015)
5 | COCCN1C[C@@H](OC(=O)N2CCN(c3ccn4ncc(-c5cc(F)cnc5OC5CC5)c4n3)CC2)CC1=O [Compound I-89] | > 1500 | A (A: ≤0.015)
6 | CC1(OC(=O)N2CCN(c3ccn4ncc(-c5cccnc5OC5CC5)c4n3)CC2)COC1 [Compound I-2, (3-methyloxetan-3-yl)-4-[3-[2-(cyclopropoxy)-3-pyridyl]pyrazolo[1,5-a]pyrimidin-5-yl]piperazine-1-carboxylate] | > 1500 | A (A: ≤0.015)
7 | CC(C)N1C[C@@H](OC(=O)N2CCN(c3ccn4ncc(-c5cccnc5OC5CC5)c4n3)CC2)CC1=O [Compound I-114, [(3S)-1-isopropyl-5-oxo-pyrrolidin-3-yl]-4-[3-[2-(cyclopropoxy)-3-pyridyl]pyrazolo[1,5-a]pyrimidin-5-yl]piperazine-1-carboxylate] | > 1500 | B (B: 0.016-0.075)
8 | CN1C[C@@H](OC(=O)N2CCN(c3ccn4ncc(-c5cc(F)cnc5OC5CC5)c4n3)CC2)CC1=O [Compound I-86] | > 1500 | A (A: ≤0.015)
9 | CC(C)(C)OC(=O)N1CC(Oc2ncccc2-c2cnn3ccc(N4CCN(C(=O)O[C@@H]5CNC(=O)C5)CC4)nc23)C1 [Compound I-42, [(3S)-5-Oxopyrrolidin-3-yl]4-[3-[2-(1-tert-butoxycarbonylazetidin-3-yl)oxy-3-pyridyl]pyrazolo[1,5-a]pyrimidin-5-yl]piperazine-1-carboxylate] | > 1500 | A (A: ≤0.015)
10 | CN1C[C@@H](OC(=O)N2CCN(c3nc4c(-c5cccnc5OC5CCCC5)cnn4cc3F)CC2)CC1=O [Compound I-121, [(3S)-1-methyl-5-oxo-pyrrolidin-3-yl]-4-[3-[2-(cyclopentoxy)-3-pyridyl]-6-fluoro-pyrazolo[1,5-a]pyrimidin-5-yl]piperazine-1-carboxylate] | > 1500 | B (B: 0.016-0.075)
11 | CN1C[C@@H](OC(=O)N2CCN(c3nc4c(-c5cccnc5OC5CCOC5)cnn4cc3F)CC2)CC1=O (stereo partly drawn) [Compound I-120, [(3S)-1-methyl-5-oxo-pyrrolidin-3-yl]4-[6-fluoro-3-(2-tetrahydrofuran-3-yloxy-3-pyridyl)pyrazolo[1,5-a]pyrimidin-5-yl]piperazine-1-carboxylate] | > 1500 | B (B: 0.016-0.075)
12 | COc1ncccc1-c1cnn2ccc(N3CCN(C(=O)OC4CNC(=O)C4)CC3)nc12 (stereo not drawn) [Compound I-6, (5-Oxopyrrolidin-3-yl) 4-[3-(2-methoxy-3-pyridyl)pyrazolo[1,5-a]pyrimidin-5-yl]piperazine-1-carboxylate] | > 1500 | A (A: ≤0.015)
13 | O=C1C[C@H](OC(=O)N2CCN(c3ccn4ncc(-c5cccnc5OC5COC5)c4n3)CC2)CN1 [Compound I-25, [(3S)-5-Oxopyrrolidin-3-yl]4-[3-[2-(oxetan-3-yloxy)-3-pyridyl]pyrazolo[1,5-a]pyrimidin-5-yl]piperazine-1-carboxylate] | > 1500 | A (A: ≤0.015)
14 | CN1C[C@@H](OC(=O)N2CCN(c3nc4c(-c5cccnc5OC5CCOCC5)cnn4cc3F)CC2)CC1=O [Compound I-122] | > 1500 | A (A: ≤0.015)
15 | CN1C[C@@H](OC(=O)N2CCN(c3ccn4ncc(-c5cccnc5OC5CCOC5)c4n3)CC2)CC1=O (stereo partly drawn) [Compound I-119] | > 1500 | B (B: 0.016-0.075)
16 | CC(C)Oc1ncccc1-c1cnn2ccc(N3CCN(C(=O)O[C@@H]4CNC(=O)C4)CC3)nc12 [Compound I-26, [(3S)-5-Oxopyrrolidin-3-yl]-4-[3-(2-isopropoxy-3-pyridyl)pyrazolo[1,5-a]pyrimidin-5-yl]piperazine-1-carboxylate] | > 1500 | A (A: ≤0.015)
17 | CC(C)Oc1ncccc1-c1cnn2ccc(N3CCN(C(=O)OC4(C)COC4)CC3)nc12 [Compound I-1, (3-methyloxetan-3-yl)-4-[3-(2-isopropoxy-3-pyridyl)pyrazolo[1,5-a]pyrimidin-5-yl]piperazine-1-carboxylate] | > 1500 | A (A: ≤0.015)
18 | O=C(O[C@H]1CO[C@H]2OCC[C@H]21)N1CCN(c2ccn3ncc(-c4cccnc4OC4CC4)c3n2)CC1 [Compound I-27, [(3aS,4R,6aR)-2,3,3a, 4,5,6a-hexahydrofuro[2,3-b]furan-4-yl]-4-[3-[2-(cyclopropoxy)-3-pyridyl]pyrazolo[1,5-a]pyrimidin-5-yl]piperazine-1-carboxylate] | > 1500 | A (A: ≤0.015)
19 | CN(CCNc1ccn2ncc(-c3cccnc3OC3CC3)c2n1)C(=O)O[C@@H]1CNC(=O)C1 [Compound I-60] | > 1500 | C (C: 0.076-0.15)
20 | COc1ncccc1-c1cnn2ccc(N3CCN(C(=O)O[C@H]4CO[C@H]5OCC[C@H]54)CC3)nc12 [Compound I-65, (3R,3aS,6aR)-hexahydrofuro[2,3-b]furan-3-yl 4-(3-(2-methoxypyridin-3-yl)pyrazolo[1,5-a]pyrimidin-5-yl)piperazine-1-carboxylate] | > 1500 | A (A: ≤0.015)
21 | [2H]C([2H])([2H])N1C[C@@H](OC(=O)N2CCN(c3ccn4ncc(-c5cccnc5OC5CC5)c4n3)CC2)CC1=O [Compound I-113, [(3S)-5-oxo-1-(trideuteriomethyl)pyrrolidin-3-yl]4-[3-[2-(cyclopropoxy)-3-pyridyl]pyrazolo[1,5-a]pyrimidin-5-yl]piperazine-1-carboxylate] | > 1500 | A (A: ≤0.015)
22 | CC1(OC(=O)N2CCN(c3ccn4ncc(-c5cccnc5OC5COC5)c4n3)CC2)COC1 [Compound I-18, (3-Methyloxetan-3-yl)-4-[3-[2-(oxetan-3-yloxy)-3-pyridyl]pyrazolo[1,5-a]pyrimidin-5-yl]piperazine-1-carboxylate] | > 1500 | A (A: ≤0.015)
23 | CN(CCNc1ccn2ncc(-c3cccnc3OC3CN(C(=O)OC(C)(C)C)C3)c2n1)C(=O)OC(C)(C)C [Compound I-62, Tert-butyl 3-[[3-[5-[2-[tert-butoxycarbonyl(methyl)amino]ethylamino]pyrazolo[1,5-a]pyrimidin-3-yl]-2-pyridyl]oxy]azetidine-1-carboxylate] | > 1500 | A (A: ≤0.015)
24 | [2H]C([2H])([2H])N1C[C@@H](OC(=O)N2CCN(c3nc4c(-c5cc(F)cnc5OC5CC5)cnn4cc3F)CC2)CC1=O [Compound I-118, [(3S)-5-oxo-1-(trideuteriomethyl)pyrrolidin-3-yl]4-[3-[2-(cyclopropoxy)-5-fluoro-3-pyridyl]-6-fluoro-pyrazolo[1,5-a]pyrimidin-5-yl]piperazine-1-carboxylate] | > 1500 | A (A: ≤0.015)
